Data reported in patent US4375475A, “Substituted pyranone inhibitors of cholesterol synthesis” (Merck & Co., Inc., priority 1981, dated 1983).
Structures can show the parent of a compound that is named as a salt. Where two headings read alike, the source gives them in different places.

How the values were obtained:
[1] = molecular target: T1, 3-hydroxy-3-methylglutaryl-coenzyme A reductase (Rattus norvegicus, UniProt P51639); experiment: method A: in vitro method of H. J. Knauss et al., inhibition of 50% of the enzymatic activity; type: biochemical; settings: compounds tested as the sodium salts of their corresponding hydroxy acid forms
T1 construct: from tissue
T1 sequence (P51639 1-887): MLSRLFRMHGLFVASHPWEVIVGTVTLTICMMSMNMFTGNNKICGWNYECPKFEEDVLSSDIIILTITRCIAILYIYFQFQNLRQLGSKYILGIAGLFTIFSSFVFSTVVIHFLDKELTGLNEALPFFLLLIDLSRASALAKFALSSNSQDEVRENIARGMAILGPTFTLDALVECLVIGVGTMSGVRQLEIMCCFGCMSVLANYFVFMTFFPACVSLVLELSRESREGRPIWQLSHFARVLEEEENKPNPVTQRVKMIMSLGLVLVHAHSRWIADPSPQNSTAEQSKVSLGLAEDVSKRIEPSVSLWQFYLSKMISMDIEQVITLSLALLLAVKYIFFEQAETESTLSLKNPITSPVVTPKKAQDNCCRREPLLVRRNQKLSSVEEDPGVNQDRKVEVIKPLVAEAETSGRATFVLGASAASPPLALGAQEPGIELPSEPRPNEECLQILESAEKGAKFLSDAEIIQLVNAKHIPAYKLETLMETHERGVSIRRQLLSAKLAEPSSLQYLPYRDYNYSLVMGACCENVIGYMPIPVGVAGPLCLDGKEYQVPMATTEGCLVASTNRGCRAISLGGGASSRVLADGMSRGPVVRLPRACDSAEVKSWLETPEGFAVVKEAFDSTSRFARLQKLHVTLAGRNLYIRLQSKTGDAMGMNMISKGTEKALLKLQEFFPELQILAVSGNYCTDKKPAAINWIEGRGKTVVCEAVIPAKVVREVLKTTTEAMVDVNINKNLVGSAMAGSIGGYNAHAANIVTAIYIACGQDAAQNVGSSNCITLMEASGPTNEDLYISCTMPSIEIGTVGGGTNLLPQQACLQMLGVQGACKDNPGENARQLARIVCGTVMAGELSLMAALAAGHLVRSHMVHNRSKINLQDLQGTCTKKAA
Excerpt: The inhibitory activity of these compounds for the biosynthesis of cholesterol has been measured by two methods. The experimental method A was the in vitro method of H. J. Knauss, et al., J. Biol. Chem., 234, 2835 (1959) and the activity was expressed as the molar concentration IC50 (M) necessary for the inhibition of 50% of the enzymatic activity. The experimental method B was the method of A. A. Kandutsch, et al., J. Biol. Chem., 248, 8403 (1973) for measuring the quantity of ^14 C-cholesterol biosynthesis from acetic acid-^14 C in mouse L cells. The activity is expressed for inhibition of 50% of the biosynthesis of cholesterol.

[2] = molecular target: T1, 3-hydroxy-3-methylglutaryl-coenzyme A reductase; settings: method A; values of Belgian Pat. No. 867,421; read-out: IC50 as reported in the cited Belgian patent; cited from earlier work
[3] = tested on: mouse L cells; settings: method B, values of Belgian Pat. No. 867,421, read-out: IC50 (inhibition of 50% of the biosynthesis of cholesterol) as reported in the cited Belgian patent; cited from earlier work

Compound `O=C(O)C[C@H](O)C[C@H](O)/C=C/c1c(Cl)cc(Cl)cc1-c1ccc(F)cc1` (relative stereo) [Example 43, (+)-(E)-(3R*,5S*)-7-(3,5-dichloro-4'-fluoro[1,1'-biphenyl]-2-yl)-3,5-dihydroxy-6-heptenoic acid, ammonium salt] has an IC50 [1] of about 13 nM.

`Cc1cc(C)cc(-c2cc(C)cc(C)c2C=CC2CC(O)CC(=O)O2)c1` (stereo not drawn) [6-[2-(3,3',5,5'-tetramethyl-[1,1'-biphenyl]-2-yl)ethenyl]-3,4,5,6-tetrahydro-4-hydroxy-2H-pyran-2-one] gave an IC50 [1] of 15 nM.

In the case of `Cc1cc(C)c(C=CC2CC(O)CC(=O)O2)c(-c2ccc(F)c(C)c2)c1` (stereo not drawn) [6-[2-(4'-fluoro-3,3',5-trimethyl[1,1'-biphenyl]-2-yl)ethenyl]-3,4,5,6-tetrahydro-4-hydroxy-2H-pyran-2-one], the IC50 [1] is reported as 7 nM.

Work on `O=C1C[C@@H](O)C[C@H](CCc2c(Cl)cc(Cl)cc2OCc2ccccc2)O1` [Example 14, (+)-Trans-6-[2-(2,4-dichloro-6-phenylmethoxyphenyl)ethyl]-3,4,5,6-tetrahydro-4-hydroxy-2H-pyran-2-one] yielded an IC50 [1] of 68 nM.

For `CC[C@H](C)C(=O)O[C@H]1CCC=C2C=C[C@H](C)[C@H](CC[C@@H]3C[C@@H](O)CC(=O)O3)[C@H]21` [compactin], the IC50 [2] is given as about 8 nM and the IC50 [3] is given as about 8 nM.
